In patent US11807644B2 (PMV Pharmaceuticals, Inc., priority 2020, dated 2023):

biological target: T1, recombinant His-tag Y220C p53 DBD protein (Homo sapiens, UniProt P04637, Y220C); assay: In vitro DNA binding activity assay (TR-FRET): binding of His-tag Y220C p53 DBD to biotin-labeled consensus DNA; assay type: biochemical; settings: SC150 = concentration to increase DNA binding by […], His-tag Y220C p53 DBD, biotin-labeled consensus DNA
T1 construct: recombinant His-tag Y220C p53 DBD protein (amino acids #˜94-312)

Row | SMILES | Y220C SC150 (μM)
1 | CN1CC[C@H](F)[C@H](Nc2cccc3c2cc(-c2noc(CNC(=O)c4ccn(C(C)(C)C)c4)n2)n3CC(F)(F)F)C1 [Compound 414B, 1-tert-butyl-N-{[3-(4-{[(3R,4S)-4-fluoro-1-methylpiperidin-3-yl]amino}-1-(2,2,2-trifluoroethyl)-1H-indol-2-yl)-1,2,4-oxadiazol-5-yl]methyl}-1H-pyrrole-3-carboxamide] | * (* = 0 μM ≤ SC150 < 0.1 μM)
2 | CN1CC[C@@H](Nc2cccc3c2cc(-c2noc(CNC(=O)c4cccc(N5CCOCC5)c4)n2)n3CC(F)(F)F)[C@@H](F)C1 [Compound 262B, N-{[3-(4-{[(3S,4R)-3-fluoro-1-methylpiperidin-4-yl]amino}-1-(2,2,2-trifluoroethyl)-1H-indol-2-yl)-1,2,4-oxadiazol-5-yl]methyl}-3-(morpholin-4-yl)benzamide] | * (* = 0 μM ≤ SC150 < 0.1 μM)
3 | CN1CCC(Nc2cccc3c2cc(-c2nc(CNC(=O)c4cccs4)no2)n3CC(F)(F)F)CC1 [Compound 139B, N-[(5-{4-[(1-methylpiperidin-4-yl)amino]-1-(2,2,2-trifluoroethyl)-1H-indol-2-yl}-1,2,4-oxadiazol-3-yl)methyl]thiophene-2-carboxamide] | ** (** = 0.1 μM ≤ SC150 < 0.5 μM)
4 | COC1CCCC1n1ccc(C(=O)NCc2nc(-c3cc4c(N[C@@H]5CCN(C)C[C@@H]5F)cccc4n3CC(F)(F)F)no2)c1 (stereo in doubt) [Compound 364B, N-{[3-(4-{[(3S,4R)-3-fluoro-1-methylpiperidin-4-yl]amino}-1-(2,2,2-trifluoroethyl)-1H-indol-2-yl)-1,2,4-oxadiazol-5-yl]methyl}-1-[(1R,2S)-2-methoxycyclopentyl]-1H-pyrrole-3-carboxamide] | * (* = 0 μM ≤ SC150 < 0.1 μM)
5 | CN1CC[C@@H](Nc2cccc3c2cc(-c2noc(CNC(=O)c4cnn(C5CC5)c4)n2)n3CC(F)(F)F)[C@@H](F)C1 [Compound 296B, 1-cyclopropyl-N-{[3-(4-{[(3S,4R)-3-fluoro-1-methylpiperidin-4-yl]amino}-1-(2,2,2-trifluoroethyl)-1H-indol-2-yl)-1,2,4-oxadiazol-5-yl]methyl}-1H-pyrazole-4-carboxamide] | * (* = 0 μM ≤ SC150 < 0.1 μM)
6 | CN1CC[C@@H](Nc2cccc3c2cc(-c2noc(CNC(=O)c4ccc(C(C)(C)O)s4)n2)n3CC(F)(F)F)[C@@H](F)C1 [Compound 424B, N-[[3-[4-[[(3S,4R)-3-fluoro-1-methyl-4-piperidyl]amino]-1-(2,2,2-trifluoroethyl)indol-2-yl]-1,2,4-oxadiazol-5-yl]methyl]-5-(1-hydroxy-1-methyl-ethyl)thiophene-2-carboxamide] | * (* = 0 μM ≤ SC150 < 0.1 μM)
7 | CN1CC[C@@H](Nc2cccc3c2cc(-c2noc(CNC(=O)[C@H]4C[C@H]4c4ccccc4)n2)n3CC(F)(F)F)[C@@H](F)C1 [Compound 206B, (1S,2R)-N-{[3-(4-{[(3S,4R)-3-fluoro-1-methylpiperidin-4-yl]amino}-1-(2,2,2-trifluoroethyl)-1H-indol-2-yl)-1,2,4-oxadiazol-5-yl]methyl}-2-phenylcyclopropane-1-carboxamide] | * (* = 0 μM ≤ SC150 < 0.1 μM)
8 | O=C(NCc1nc(-c2cc3c(NCC4CCC4)cccc3n2CC(F)(F)F)no1)C1CC1 [Compound 166B, N-[(3-{4-[(cyclobutylmethyl)amino]-1-(2,2,2-trifluoroethyl)-1H-indol-2-yl}-1,2,4-oxadiazol-5-yl)methyl]cyclopropanecarboxamide] | ** (** = 0.1 μM ≤ SC150 < 0.5 μM)
9 | CN1CCC(Nc2cccc3c2cc(-c2noc(CNc4ccccc4)n2)n3CC(F)(F)F)CC1 [Compound 142B, N-(1-methylpiperidin-4-yl)-2-{5-[(phenylamino)methyl]-1,2,4-oxadiazol-3-yl}-1-(2,2,2-trifluoroethyl)-1H-indol-4-amine] | * (* = 0 μM ≤ SC150 < 0.1 μM)
10 | CN1CC[C@@H](Nc2cccc3c2cc(-c2noc(CNC(=O)c4cn(CC(F)F)cn4)n2)n3CC(F)(F)F)[C@@H](F)C1 [Compound 310B, 1-(2,2-difluoroethyl)-N-{[3-(4-{[(3S,4R)-3-fluoro-1-methylpiperidin-4-yl]amino}-1-(2,2,2-trifluoroethyl)-1H-indol-2-yl)-1,2,4-oxadiazol-5-yl]methyl}-1H-imidazole-4-carboxamide] | * (* = 0 μM ≤ SC150 < 0.1 μM)
11 | COC1CCC(n2ccc(C(=O)NCc3nc(-c4cc5c(N[C@@H]6CCN(C)C[C@@H]6F)cccc5n4CC(F)(F)F)no3)c2)C1 (stereo in doubt) [Compound 359B, N-{[3-(4-{[(3S,4R)-3-fluoro-1-methylpiperidin-4-yl]amino}-1-(2,2,2-trifluoroethyl)-1H-indol-2-yl)-1,2,4-oxadiazol-5-yl]methyl)-1-[(1R,3S)-3-methoxycyclopentyl]-1H-pyrrole-3-carboxamide] | * (* = 0 μM ≤ SC150 < 0.1 μM)
12 | CC(C)(C)n1ccc(C(=O)NCc2nc(-c3cc4c(N[C@H]5CC[C@@H](F)CC5)cccc4n3CC(F)(F)F)no2)c1 [Compound 343B, 1-tert-butyl-N-{[3-(4-{[(1s,4s)-4-fluorocyclohexyl]amino}-1-(2,2,2-trifluoroethyl)-1H-indol-2-yl)-1,2,4-oxadiazol-5-yl]methyl}-1H-pyrrole-3-carboxamide] | * (* = 0 μM ≤ SC150 < 0.1 μM)
13 | CCN1CC[C@H](Nc2cccc3c2cc(-c2noc(CNC(=O)c4ccn(CCOC)c4)n2)n3CC(F)(F)F)[C@H](F)C1 [Compound 273B, N-{[3-(4-{[(3R,4S)-1-ethyl-3-fluoropiperidin-4-yl]amino}-1-(2,2,2-trifluoroethyl)-1H-indol-2-yl)-1,2,4-oxadiazol-5-yl]methyl}-1-(2-methoxyethyl)-1H-pyrrole-3-carboxamide] | * (* = 0 μM ≤ SC150 < 0.1 μM)
14 | CN1CCC(C(=O)NCc2nnc(-c3cc4c(N[C@@H]5CCN(C)C[C@@H]5F)cccc4n3CC(F)(F)F)s2)CC1 (racemic) [Compound 40B, (+/−)-N-{[5-(4-{[(3R,4S)-3-fluoro-1-methylpiperidin-4-yl]amino}-1-(2,2,2-trifluoroethyl)-1H-indol-2-yl)-1,3,4-thiadiazol-2-yl]methyl}-1-methylpiperidine-4-carboxamide] | *** (*** = 0.5 μM ≤ SC150 < 1 μM)
15 | COC(C)(C)c1ccc(C(=O)NCc2nc(-c3cc4c(N[C@@H]5CCNC[C@@H]5F)cccc4n3CC(F)(F)F)no2)s1 [Compound 480B] | * (* = 0 μM ≤ SC150 < 0.1 μM)
16 | CN1CC[C@@H](Nc2cccc3c2cc(-c2noc(CNC(=O)c4cc5ccccn5c4)n2)n3CC(F)(F)F)[C@@H](F)C1 [Compound 196B, N-{[3-(4-{[(3S,4R)-3-fluoro-1-methylpiperidin-4-yl]amino}-1-(2,2,2-trifluoroethyl)-1H-indol-2-yl)-1,2,4-oxadiazol-5-yl]methyl}indolizine-2-carboxamide] | * (* = 0 μM ≤ SC150 < 0.1 μM)
17 | CN1CCC(Nc2cccc3c2cc(-c2noc(CNC(=O)c4ccc(F)cc4)n2)n3CC(F)(F)F)CC1 [Compound 150B, 4-fluoro-N-[(3-{4-[(1-methylpiperidin-4-yl)amino]-1-(2,2,2-trifluoroethyl)-1H-indol-2-yl}-1,2,4-oxadiazol-5-yl)methyl]benzamide] | * (* = 0 μM ≤ SC150 < 0.1 μM)
18 | C[C@H]1CN(C)CC[C@H]1Nc1cccc2c1cc(-c1noc(CNC(=O)c3cnn(C(C)(C)C)c3)n1)n2CC(F)(F)F [Compound 510B, 1-tert-butyl-N-{[3-(4-{[(3S,4R)-1,3-dimethylpiperidin-4-yl]amino}-1-(2,2,2-trifluoroethyl)-1H-indol-2-yl)-1,2,4-oxadiazol-5-yl]methyl}-1H-pyrazole-4-carboxamide] | * (* = 0 μM ≤ SC150 < 0.1 μM)
19 | CN1CCC(Nc2cccc3c2cc(-c2nnc(CNC(=O)c4ccccc4F)s2)n3CC(F)(F)F)CC1 [Compound 50B, 2-fluoro-N-[(5-{4-[(1-methylpiperidin-4-yl)amino]-1-(2,2,2-trifluoroethyl)-1H-indol-2-yl}-1,3,4-thiadiazol-2-yl)methyl]benzamide] | ** (** = 0.1 μM ≤ SC150 < 0.5 μM)
20 | COCC1(n2ccc(C(=O)NCc3nc(-c4cc5c(N[C@H]6CCOC[C@H]6F)cccc5n4CC(F)(F)F)no3)c2)CC1 [Compound 496B, N-{[3-(4-{[(3S,4S)-3-fluorooxan-4-yl]amino}-1-(2,2,2-trifluoroethyl)-1H-indol-2-yl)-1,2,4-oxadiazol-5-yl]methyl}-1-[1-(methoxymethyl)cyclopropyl]-1H-pyrrole-3-carboxamide] | * (* = 0 μM ≤ SC150 < 0.1 μM)
21 | CN1CC[C@@H](Nc2cccc3c2cc(-c2noc(CNC(=O)c4ccn(C)c4)n2)n3CC(F)(F)F)[C@@H](F)C1 [Compound 181B, N-{[3-(4-{[(3S,4R)-3-fluoro-1-methylpiperidin-4-yl]amino}-1-(2,2,2-trifluoroehyl)-1H-indol-2-yl)-1,2,4-oxadiazol-5-yl]methyl}-1-methyl-1H-pyrrole-3-carboxamide] | * (* = 0 μM ≤ SC150 < 0.1 μM)

same assay, conditions: concentration to increase DNA binding by […], incubated at either 27° C. or 29° C. for 60 min

Row | SMILES | SC150 (μM)
22 | O=S1(=O)CCC(Nc2cccc3c2cc(-c2ccc(CN4CCOCC4)cc2)n3CC(F)(F)F)CC1 [Compound 24A, 4-[(2-{4-[(morpholin-4-yl)methyl]phenyl}-1-(2,2,2-trifluoroethyl)-1H-indol-4-yl)amino]-1λ^6-thiane-1,1-dione] | +++ (+++ = 5 μM ≤ SC150 < 10 μM)
23 | O=S1(=O)CCC(Nc2cccc3c2cc(-c2ccc(Cl)cc2)n3CC(F)(F)F)CC1 [Compound 14A, 4-{[2-(4-chlorophenyl)-1-(2,2,2-trifluoroethyl)-1H-indol-4-yl]amino}-1λ^6-thiane-1,1-dione] | ++++ (++++ = 10 μM ≤ SC150 < 35 μM)
